Data: paper PMC9021956, “Screening and Identification of HBV Epitopes Restricted by Multiple Prevalent HLA-A Allotypes” (Frontiers in Immunology, 2022)
pIC50: −log10 of the molar value. Where two headings read alike, the source gives them in different places. Residues, ends and D or L forms follow the SMILES beside them.

Experiments:
HLA-A0201 = biological target: T1, HLA-A0201 (Homo sapiens, UniProt P04439, D140Y/D185E/D98H/E176V/E277Q/G131W/G231S/I119V/I121R/I166T/I218V/L300P/L318F/N151K/N90K/P208A/P217A/Q86G/Q94H/R138H/R169H/T345S); experiment: cell-based; type: binding; conditions: for inhibition at 5 µM / inhibition at 15 µM: HLA-A0201 HMy2.CIR cells, 24 hours, flow cytometry; for inhibition at 5 µM: competitor peptide 5μM, read-out: 5μM Inhibition (%); for inhibition at 15 µM: competitor peptide 15μM, read-out: 15μM Inhibition (%)
T1 construct: expressed in transfected cells; host or cells: HMy2.CIR
Summary of the method: (§1)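 Affinity is expressed as IC50 for displacement of the FITC-labeled reference peptide from HLA-A on transfected HMy2.CIR cells. Cell-surface molecules were first emptied by brief acid treatment (pH 3.3) and then refolded with β2-m at 1 μg/mL in the presence of competitor.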

HLA-A0203 = biological target: T2, HLA-A0203 (Homo sapiens, UniProt P04439, A173T/D140Y/D185E/D98H/E277Q/G131W/G231S/I119V/I121R/I166T/I218V/L180W/L300P/L318F/N151K/N90K/P208A/P217A/Q86G/Q94H/R138H/R169H/T345S); experiment: cell-based; type: binding; conditions: for inhibition at 5 µM / inhibition at 15 µM: HLA-A0203 HMy2.CIR cells, 24 hours, flow cytometry; for inhibition at 5 µM: competitor peptide 5μM; for inhibition at 15 µM: competitor peptide 15μM
T2 construct: expressed in transfected cells; host or cells: HMy2.CIR
Summary of the method: as §1

HLA-A0207 = biological target: T3, HLA-A0207 (Homo sapiens, UniProt P04439, D140Y/D185E/D98H/E176V/E277Q/G131W/G231S/I119V/I121R/I166T/I218V/L300P/L318F/N151K/N90K/P208A/P217A/Q86G/Q94H/R138H/R169H/T345S/Y123C); experiment: cell-based; type: binding
T3 construct: expressed in transfected cells; host or cells: HMy2.CIR
Summary of the method: as §1

HLA-A3303 = biological target: T4, HLA-A3303 (Homo sapiens, UniProt P04439, A270S/D185E/E176V/E277Q/E87N/F33T/G231S/H175R/I121M/I218V/I322F/K168Q/L300P/L318F/M331R/P217A/Q86R/Q94H/R138Q/T323A/T345S/T97I/V358M); experiment: cell-based; type: binding; conditions: for inhibition at 5 µM / inhibition at 15 µM: HLA-A3303 HMy2.CIR cells, 24 hours, flow cytometry; for inhibition at 5 µM: competitor peptide 5μM, read-out: 5μM Inhibition (%); for inhibition at 15 µM: competitor peptide 15μM, read-out: 15μM Inhibition (%)
T4 construct: expressed in transfected cells; host or cells: HMy2.CIR
Summary of the method: as §1

HLA-A2402 = HLA-A2402 (Homo sapiens, UniProt P04439, D101N/D140Y/D185E/E176V/E190D/F33S/G103R/G107R/I119L/I121M/I306V/K335N/L105A/L180Q/L300P/N151K/N90K/Q86E/Q94H/R106L/R138H/R89G/T104I/T345S/V100E/W191G/Y123F); experiment: cell-based; type: binding; conditions: for inhibition at 5 µM / inhibition at 15 µM: HLA-A2402 HMy2.CIR cells, 24 hours, flow cytometry; for inhibition at 5 µM: competitor peptide 5μM; for inhibition at 15 µM: competitor peptide 15μM
Summary of the method: as §1

HLA-A0206 = biological target: T5, HLA-A0206 (Homo sapiens, UniProt P04439, D140Y/D185E/D98H/E176V/E277Q/F33Y/G131W/G231S/I119V/I121R/I166T/I218V/L300P/L318F/N151K/N90K/P208A/P217A/Q86G/Q94H/R138H/R169H/T345S); experiment: cell-based; type: binding
T5 construct: expressed in transfected cells; host or cells: HMy2.CIR
Summary of the method: as §1

[1] = tested on: twelve prevalent HLA-A allotypes; experiment: Peptide competitive binding assay, whole panel; set-up: species or system human; conditions: high = IC50<5μM
Description: A set of fluoresce-labeled reference peptides (positive-control peptide) were synthesized with a purity of >99% by Sangon Biotech and stored at 4°C, such as FLPSDK(FITC)FPSV for A0201, A0203 and A0206 ([30]), YVNVNK(FITC)GLK for A1101 and A3303 ([31]), EYLVSK(FITC)GVW for A2402 ([32]), ATFQFK(FITC)VER for A3101, A1102 and A0301 ([33]), KLPDDFK(FITC)GCV for A0207 ([34]), YLEPAK(FITC)AKY for A0101 ([30]), and ASRELK(FITC)VSY for A3001 (identified in house). Then the competitive peptide binding assay was performed as described with minor modifications ([30], [35]). Briefly, the HMy2.CIR cell lines expressing the indicated HLA-A molecule were washed with acid buffer (0.131M citric acid and 0.061M sodium phosphate Na2HPO4, PH3.3, 0.22 μm filtered) for 1 min, and immediately neutralized by IMDM medium containing 0.5% BSA. After washing, the cells were seeded into 96-well U culture plate (1×10^5 cells/100 μL/well) with β2-m (1 μg/mL). […] In parallel, no peptide control well (cells alone) and positive control well (cells with FITC-labeled reference peptide) were also performed.
The plate was centrifuged at 600 rpm for 5 min at room temperature (RT). Cells were washed twice with 100 μL cold 0.5% BSA-PBS. Finally, cells were resuspended with 150 μL PBS and analyzed with flow cytometry. Sample % is the percentage of FITC^+ cells in the experiment well, while the background % is the percentage of FITC^+ cells in the no peptide control well, and the max % is the percentage of FITC^+ cells in the positive control well. Competitive binding (%) = [1-(sample % - background %)/(max % – background %)] × 100%. […] Binding affinity of unlabeled peptide with the indicated HLA-A molecule is assessed by IC50.
Subsequently, the unlabeled epitope peptides of HBV competed with fluorescently labeled reference peptides in the binding with HLA-A molecules onto transfected cell lines for 24 hours. Here, twelve prevalent HLA-A allotypes were tested with totally 62 HBV epitope peptides validated in house.

HLA-A1102 = biological target: T6, HLA-A1102 (Homo sapiens, UniProt P04439, A114D/D185E/E176A/E43K/F33Y/L180Q/S129P/T187R); experiment: Peptide competitive binding assay, transfected HMy2.CIR cells, reference ATFQFK(FITC)VER
T6 construct: expressed in transfected cells; host or cells: HMy2.CIR
Summary of the method: as §1

HLA-A0301 = biological target: T7, HLA-A0301 (Homo sapiens, UniProt P04439); experiment: as above
T7 construct: expressed in transfected cells; host or cells: HMy2.CIR
Summary of the method: as §1

HLA-A1101 = biological target: T8, HLA-A1101 (Homo sapiens, UniProt P04439, A114D/D185E/E176A/F33Y/L180Q/S129P/T187R); experiment: cell-based; type: binding; conditions: for inhibition at 5 µM: read-out: 5μM Inhibition (%); for inhibition at 15 µM: read-out: 15μM Inhibition (%)
T8 construct: expressed in transfected cells; host or cells: HMy2.CIR
Summary of the method: as §1

SMILES: CC(C)C[C@H](NC(=O)[C@@H](N)Cc1ccccc1)C(=O)N1CCC[C@H]1C(=O)N[C@@H](CO)C(=O)N[C@@H](CC(=O)O)C(=O)N[C@@H](Cc1ccccc1)C(=O)N[C@@H](Cc1ccccc1)C(=O)N1CCC[C@H]1C(=O)N[C@@H](CO)C(=O)O [Epitope P67] (H-FLPSDFFPS-OH; N-terminus and C-terminus assumed)
- pIC50 (HLA-A0201): > 5.30
- inhibition at 5 µM (HLA-A0201): 91.5%
- inhibition at 15 µM (HLA-A0201): 97.8%
- pIC50 (HLA-A0203): > 5.30
- inhibition at 5 µM (HLA-A0203): 86.3%
- inhibition at 15 µM (HLA-A0203): 91.5%
- pIC50 (HLA-A0207): < 4.82
- inhibition at 5 µM (HLA-A0207; HLA-A0207 HMy2.CIR cells, competitor peptide 5μM, 24 hours, flow cytometry, read-out: 5μM Inhibition (%)): 42%
- inhibition at 15 µM (HLA-A0207; HLA-A0207 HMy2.CIR cells, competitor peptide 15μM, 24 hours, flow cytometry, read-out: 15μM Inhibition (%)): 48%
- pIC50 (HLA-A3303): < 4.82
- inhibition at 5 µM (HLA-A3303): 0%
- inhibition at 15 µM (HLA-A3303): 0%
- pIC50 (HLA-A2402): < 4.82
- inhibition at 5 µM (HLA-A2402): 2%
- inhibition at 15 µM (HLA-A2402): 4.3%
- pIC50 (HLA-A0206): > 5.30
- inhibition at 5 µM (HLA-A0206; HLA-A0206 HMy2.CIR cells, competitor peptide 5μM, 24 hours, flow cytometry, read-out: 5μM Inhibition (%)): 95.7%
- inhibition at 15 µM (HLA-A0206; HLA-A0206 HMy2.CIR cells, competitor peptide 15μM, 24 hours, flow cytometry, read-out: 15μM Inhibition (%)): 100%
- number of HLA-A allotypes bound with high affinity [1]: three

SMILES: CC(C)C[C@H](NC(=O)[C@H](CC(N)=O)NC(=O)CNC(=O)[C@H](Cc1c[nH]cn1)NC(=O)[C@H](C)NC(=O)[C@H](CC(N)=O)NC(=O)[C@@H](NC(=O)[C@@H](N)[C@@H](C)O)C(C)C)C(=O)N1CCC[C@H]1C(=O)N[C@@H](CCCCN)C(=O)O [Epitope P47] (H-TVNAHGNLPK-OH; N-terminus and C-terminus assumed)
- inhibition at 5 µM (HLA-A1102; HLA-A1102 HMy2.CIR cells, competitor peptide 5μM, 24 hours, flow cytometry, read-out: 5μM Inhibition (%)): 24.7%
- inhibition at 15 µM (HLA-A1102; HLA-A1102 HMy2.CIR cells, competitor peptide 15μM, 24 hours, flow cytometry, read-out: 15μM Inhibition (%)): 44.2%
- pIC50 (HLA-A1102; read-out: Affinity): < 4.82
- inhibition at 5 µM (HLA-A0301; HLA-A0301 HMy2.CIR cells, competitor peptide 5μM, 24 hours, flow cytometry, read-out: 5μM Inhibition (%)): 65.8%
- inhibition at 15 µM (HLA-A0301; HLA-A0301 HMy2.CIR cells, competitor peptide 15μM, 24 hours, flow cytometry, read-out: 15μM Inhibition (%)): 78.1%
- pIC50 (HLA-A0301; read-out: Affinity): > 5.30
- pIC50 (HLA-A0201): < 4.82
- inhibition at 5 µM (HLA-A0201): 7.2%
- inhibition at 15 µM (HLA-A0201): 12%
- pIC50 (HLA-A1101): > 5.30
- inhibition at 5 µM (HLA-A1101; HLA-A1101 HMy2.CIR cells, competitor peptide 5μM, 24 hours, flow cytometry): 78.3%
- inhibition at 15 µM (HLA-A1101; HLA-A1101 HMy2.CIR cells, competitor peptide 15μM, 24 hours, flow cytometry): 90.3%
- number of HLA-A allotypes bound with high affinity [1]: two

SMILES: CC[C@H](C)[C@H](NC(=O)[C@H](Cc1c[nH]c2ccccc12)NC(=O)[C@@H](NC(=O)CNC(=O)[C@H](Cc1ccccc1)NC(=O)[C@H](CO)NC(=O)[C@@H](NC(=O)[C@H](CC(C)C)NC(=O)[C@@H](N)Cc1ccc(O)cc1)C(C)C)C(C)C)C(=O)O [Epitope P11]
- pIC50 (HLA-A0201): > 5.30
- inhibition at 5 µM (HLA-A0201): 81.2%
- inhibition at 15 µM (HLA-A0201): 96.2%
- pIC50 (HLA-A0203): > 5.30
- inhibition at 5 µM (HLA-A0203): 89.4%
- inhibition at 15 µM (HLA-A0203): 97.4%
- pIC50 (HLA-A1101): < 4.82
- inhibition at 5 µM (HLA-A1101; 24 h): 17.1%
- inhibition at 15 µM (HLA-A1101; 24 h): 20%
- pIC50 (HLA-A3303): < 4.82
- inhibition at 5 µM (HLA-A3303): 10.2%
- inhibition at 15 µM (HLA-A3303): 4.63%
- Affinity (HLA-A2402): inter
- inhibition at 5 µM (HLA-A2402): 41%
- inhibition at 15 µM (HLA-A2402): 52.5%
- number of HLA-A allotypes bound with high affinity [1]: two
